Test results taken from the supplement of paper PMC4862054.

Experiments:
Settings in all cases: incubation time: 72 h
BT-549 [1] = experiment: normalised viability (% of control), CellTiter-Blue; higher = more viable cells (about 100 = DMSO control)
Procedure, shortened: (§1)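 Breast cancer cell lines were treated for 72 h in 384-well format and measured by CellTiter-Blue fluorescence at 560/590 nm. Results were normalised per plate to vehicle (100) and a positive kill control (0). The entry is normalised viability at a single listed concentration of the series.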

CAL-120 [2] = experiment: as above
Procedure, shortened: as §1

CAL-148 [3] = experiment: as above
Procedure, shortened: as §1

CAL-51 [4] = experiment: as above
Procedure, shortened: as §1

CAL-85-1 [5] = experiment: as above
Procedure, shortened: as §1

HDQ-P1 [6] = experiment: as above
Procedure, shortened: as §1

MDA-MB-231 [7] = experiment: as above
Procedure, shortened: as §1

MDA-MB-468 = experiment: as above
Procedure, shortened: as §1

MFM-223 [8] = experiment: as above
Procedure, shortened: as §1

SK-BR-3 = experiment: as above
Procedure, shortened: as §1

BT-474 = experiment: drug sensitivity score (DSS), CellTox Green (DSS (AUC-based score)); higher = stronger drug effect (viability inhibition or cytotoxicity); extreme values may be limits of the assay
Procedure, shortened: (§2)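 The area under the fitted dose-response curve was used to calculate the drug sensitivity score. Cells from breast cancer lines were incubated for 72 h in 384-well plates with compound at 5 concentrations spaced 10-fold over a 10,000-fold range specific to each compound. Plates were read for CellTox Green and then CellTiter-Glo, and normalised to 0.1 % DMSO and a positive kill control.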

BT-549 [9] = experiment: as above
Procedure, shortened: as §2

CAL-120 [10] = experiment: as above
Procedure, shortened: as §2

CAL-148 [11] = experiment: as above
Procedure, shortened: as §2

CAL-51 [12] = experiment: as above
Procedure, shortened: as §2

CAL-85-1 [13] = experiment: as above
Procedure, shortened: as §2

DU-4475 = experiment: as above
Procedure, shortened: as §2

HCC1143 = experiment: as above
Procedure, shortened: as §2

HCC1599 = experiment: as above
Procedure, shortened: as §2

HCC1937 = experiment: as above
Procedure, shortened: as §2

HDQ-P1 [14] = experiment: as above
Procedure, shortened: as §2

Hs578T = experiment: as above
Procedure, shortened: as §2

MDA-MB-231 [15] = experiment: as above
Procedure, shortened: as §2

MDA-MB-436 = experiment: as above
Procedure, shortened: as §2

MFM-223 [16] = experiment: as above
Procedure, shortened: as §2

CC(C)(C)NC(=O)[C@H]1CC[C@H]2[C@@H]3CC[C@H]4NC(=O)C=C[C@]4(C)[C@H]3CC[C@]12C [Finasteride]
normalised viability [%]
Settings	BT-549 [1]	CAL-51 [4]	CAL-85-1 [5]	CAL-120 [2]	CAL-148 [3]	HDQ-P1 [6]	MDA-MB-231 [7]	MDA-MB-468	MFM-223 [8]	SK-BR-3
3 nM	–	112	100	–	95.1	121	–	–	–	–
10 nM	89.8	–	–	108	–	–	98.2	106	106	110
30 nM	–	108	91.7	–	96.8	116	–	–	–	–
100 nM	–	103	100	–	102	130	–	–	–	–
1000 nM	99	–	–	108	–	–	98.5	99.2	97.7	107
10000 nM	98.5	–	–	116	–	–	122	121	41.8	102

Settings	drug sensitivity score
BT-474	0
BT-549 [9]	0
CAL-51 [12]	0
CAL-85-1 [13]	0
CAL-120 [10]	0
CAL-148 [11]	0
DU-4475	0
HCC1143	0
HCC1599	0
HCC1937	0
HDQ-P1 [14]	0
Hs578T	2.04
MDA-MB-231 [15]	0
MDA-MB-436	0
MFM-223 [16]	3.14

Nc1ccn([C@@H]2O[C@H](CO)[C@@H](O)C2(F)F)c(=O)n1 [Gemcitabine]
normalised viability [%]
Settings	BT-549 [1]	CAL-51 [4]	CAL-85-1 [5]	CAL-120 [2]	CAL-148 [3]	HDQ-P1 [6]	MDA-MB-231 [7]	MDA-MB-468	MFM-223 [8]	SK-BR-3
0.3 nM	–	102	96.6	–	102	110	–	–	–	–
1 nM	92.8	–	–	107	–	–	97.9	104	99.7	108
3 nM	–	98	85.1	–	92.1	108	–	–	–	–
10 nM	–	83.2	85.3	–	65.2	100	–	–	–	–
100 nM	69.9	–	–	41.6	–	–	72.1	35.5	95.6	47
1000 nM	61	–	–	43	–	–	72.2	24.6	34.9	40.9

Settings	drug sensitivity score
BT-474	0
BT-549 [9]	0
CAL-51 [12]	13.4
CAL-85-1 [13]	4.04
CAL-120 [10]	0
CAL-148 [11]	11.2
DU-4475	0
HCC1143	0
HCC1599	0
HCC1937	0
HDQ-P1 [14]	0
Hs578T	0
MDA-MB-231 [15]	0
MDA-MB-436	0
MFM-223 [16]	0

CC(=O)[C@]1(O)Cc2c(O)c3c(c(O)c2[C@@H](O[C@H]2C[C@H](N)[C@H](O)[C@H](C)O2)C1)C(=O)c1ccccc1C3=O [Idarubicin]
normalised viability [%]
Settings	BT-549 [1]	CAL-51 [4]	CAL-85-1 [5]	CAL-120 [2]	CAL-148 [3]	HDQ-P1 [6]	MDA-MB-231 [7]	MDA-MB-468	MFM-223 [8]	SK-BR-3
0.3 nM	–	106	104	–	91.7	118	–	–	–	–
1 nM	108	–	–	108	–	–	101	100	107	107
3 nM	–	98	91.9	–	93.2	120	–	–	–	–
10 nM	–	44.2	94.3	–	63.2	104	–	–	–	–
100 nM	50	–	–	40.7	–	–	41.5	41.2	92.5	26.4
1000 nM	9.06	–	–	11.1	–	–	8.68	4.98	11.5	4.23

Settings	drug sensitivity score
BT-474	4.95
BT-549 [9]	0
CAL-51 [12]	9.49
CAL-85-1 [13]	8.04
CAL-120 [10]	0
CAL-148 [11]	12.7
DU-4475	0.488
HCC1143	0
HCC1599	0
HCC1937	0
HDQ-P1 [14]	0
Hs578T	0
MDA-MB-231 [15]	0
MDA-MB-436	0
MFM-223 [16]	1.56

C/C(=C\c1csc(C)n1)[C@@H]1C[C@@H]2O[C@]2(C)CCC[C@H](C)[C@H](O)[C@@H](C)C(=O)C(C)(C)[C@@H](O)CC(=O)N1 [Ixabepilone]
normalised viability [%]
Settings	BT-549 [1]	CAL-51 [4]	CAL-85-1 [5]	CAL-120 [2]	CAL-148 [3]	HDQ-P1 [6]	MDA-MB-231 [7]	MDA-MB-468	MFM-223 [8]	SK-BR-3
0.3 nM	–	110	83.4	–	95.2	91.1	–	–	–	–
1 nM	69.2	–	–	75.6	–	–	84.7	97.8	76.8	87.8
3 nM	–	107	87.8	–	97.1	76.4	–	–	–	–
10 nM	–	107	88.9	–	92.8	95.3	–	–	–	–
100 nM	96.9	–	–	78.3	–	–	51.6	88.5	75.8	82.5
1000 nM	19.6	–	–	50.4	–	–	16.8	45.4	31.6	12.6

Settings	drug sensitivity score
BT-474	0
BT-549 [9]	5.33
CAL-51 [12]	11.7
CAL-85-1 [13]	4.02
CAL-120 [10]	0
CAL-148 [11]	0
DU-4475	0
HCC1143	0
HCC1599	0
HCC1937	0
HDQ-P1 [14]	0
Hs578T	0
MDA-MB-231 [15]	0.915
MDA-MB-436	0
MFM-223 [16]	0

C=CCn1c(=O)c2cnc(Nc3ccc(N4CCN(C)CC4)cc3)nc2n1-c1cccc(C(C)(C)O)n1 [MK1775]
normalised viability [%]
Settings	BT-549 [1]	CAL-51 [4]	CAL-85-1 [5]	CAL-120 [2]	CAL-148 [3]	HDQ-P1 [6]	MDA-MB-231 [7]	MDA-MB-468	MFM-223 [8]	SK-BR-3
3 nM	–	98.9	79.6	–	85.1	92.9	–	–	–	–
10 nM	103	–	–	91.2	–	–	84	110	102	79.8
30 nM	–	90.8	80.9	–	92.8	98.5	–	–	–	–
100 nM	–	87	78.6	–	81.5	94.4	–	–	–	–
1000 nM	31	–	–	26	–	–	26.9	46.3	44.3	9.36
10000 nM	9.32	–	–	9.09	–	–	16.9	10.1	40.1	10.2

Settings	drug sensitivity score
BT-474	6.62
BT-549 [9]	9.39
CAL-51 [12]	15.7
CAL-85-1 [13]	16.5
CAL-120 [10]	4.54
CAL-148 [11]	21.1
DU-4475	0
HCC1143	3.3
HCC1599	4.9
HCC1937	0
HDQ-P1 [14]	9.56
Hs578T	9.43
MDA-MB-231 [15]	19.8
MDA-MB-436	13.8
MFM-223 [16]	5.91

CN(Cc1cnc2nc(N)nc(N)c2n1)c1ccc(C(=O)N[C@@H](CCC(=O)O)C(=O)O)cc1 [Methotrexate]
normalised viability [%]
Settings	BT-549 [1]	CAL-51 [4]	CAL-85-1 [5]	CAL-120 [2]	CAL-148 [3]	HDQ-P1 [6]	MDA-MB-231 [7]	MDA-MB-468	MFM-223 [8]	SK-BR-3
3 nM	–	108	98.5	–	99.8	108	–	–	–	–
10 nM	91.4	–	–	85.2	–	–	94.2	90.7	108	95.9
30 nM	–	101	84	–	91.5	95.5	–	–	–	–
100 nM	–	62.6	78	–	67.3	96	–	–	–	–
1000 nM	78.6	–	–	46.9	–	–	94.7	41.5	107	52
10000 nM	95.7	–	–	55	–	–	94.1	42.7	100	52.8

Settings	drug sensitivity score
BT-474	0
BT-549 [9]	0
CAL-51 [12]	0
CAL-85-1 [13]	0.579
CAL-120 [10]	0
CAL-148 [11]	0
DU-4475	0
HCC1143	1.72
HCC1599	0
HCC1937	0
HDQ-P1 [14]	0
Hs578T	7.51
MDA-MB-231 [15]	0
MDA-MB-436	2.33
MFM-223 [16]	0

CO[C@@]12[C@H](COC(N)=O)C3=C(C(=O)C(C)=C(N)C3=O)N1C[C@@H]1N[C@@H]12 [Mitomycin C]
normalised viability [%]
Settings	BT-549 [1]	CAL-51 [4]	CAL-85-1 [5]	CAL-120 [2]	CAL-148 [3]	HDQ-P1 [6]	MDA-MB-231 [7]	MDA-MB-468	MFM-223 [8]	SK-BR-3
3 nM	–	119	104	–	97.3	105	–	–	–	–
10 nM	85	–	–	92.4	–	–	108	95.3	96.9	99.2
30 nM	–	118	98.4	–	102	96.3	–	–	–	–
100 nM	–	107	105	–	100	104	–	–	–	–
1000 nM	84.9	–	–	91.5	–	–	76.1	78.5	96.2	61.5
10000 nM	14.1	–	–	40.4	–	–	47.3	8.5	8.74	10.4

Settings	drug sensitivity score
BT-474	0
BT-549 [9]	0
CAL-51 [12]	17.2
CAL-85-1 [13]	0
CAL-120 [10]	0
CAL-148 [11]	1.72
DU-4475	0
HCC1143	1.5
HCC1599	0
HCC1937	0
HDQ-P1 [14]	0.392
Hs578T	0.971
MDA-MB-231 [15]	0
MDA-MB-436	0
MFM-223 [16]	1.79

CCNC(=O)c1noc(-c2cc(C(C)C)c(O)cc2O)c1-c1ccc(CN2CCOCC2)cc1 [NVP-AUY922]
normalised viability [%]
Settings	BT-549 [1]	CAL-51 [4]	CAL-85-1 [5]	CAL-120 [2]	CAL-148 [3]	HDQ-P1 [6]	MDA-MB-231 [7]	MDA-MB-468	MFM-223 [8]	SK-BR-3
0.3 nM	–	107	101	–	98.7	94	–	–	–	–
1 nM	113	–	–	101	–	–	140	106	97.4	106
3 nM	–	106	96.8	–	108	97.8	–	–	–	–
10 nM	–	104	102	–	112	64.9	–	–	–	–
100 nM	29.3	–	–	18.9	–	–	39.1	27.3	26.1	16.2
1000 nM	31.7	–	–	17.1	–	–	31	23.3	25.4	16.8

Settings	drug sensitivity score
BT-474	3.93
BT-549 [9]	0
CAL-51 [12]	6.99
CAL-85-1 [13]	9.49
CAL-120 [10]	0.256
CAL-148 [11]	12.7
DU-4475	5.69
HCC1143	0
HCC1599	0
HCC1937	0.92
HDQ-P1 [14]	6
Hs578T	6.88
MDA-MB-231 [15]	12.6
MDA-MB-436	0
MFM-223 [16]	0
